Assay results reported in ChEMBL document CHEMBL1201862, “PubChem BioAssay data set” (2004).
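Exposure lasted 48 hours, with cells grown in 96-well plates and compounds tested at five concentrations. GI50 is the concentration that inhibits growth by half.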 The source made the active and inactive calls. Cut-off read from the data, not from the text of the source: active = GI50 up to about 1.1 µM and inactive = higher.

How the values were obtained:
Assay in all cases: inhibition of tumour cell growth, NCI panel, 48 h
[1] = tested on: 786-0
[2] = tested on: A498
[3] = tested on: BT-549
[4] = tested on: DU-145
[5] = tested on: HCT-15
[6] = tested on: HOP-62
[7] = tested on: HOP-92
[8] = tested on: HT-29
[9] = tested on: MDA-MB-435
[10] = tested on: MOLT-4
[11] = tested on: NCI-H522
[12] = tested on: NCI/ADR-RES
[13] = tested on: OVCAR-3
[14] = tested on: RXF 393
[15] = tested on: SK-MEL-2
[16] = tested on: SN12C
[17] = tested on: SNB-19
[18] = tested on: T47D
[19] = tested on: UACC-62

Compound	GI50 [1]	GI50 [2]	GI50 [3]	GI50 [4]	GI50 [5] [µM]	GI50 [6]	GI50 [7]	GI50 [8]	GI50 [9]	GI50 [10]	GI50 [11]	GI50 [12]	GI50 [13]	GI50 [14]	GI50 [15]	GI50 [16]	GI50 [17]	GI50 [18]	GI50 [19]
N/C(S)=N/N=C/c1ccc(N)cn1	2.43 µM (inactive)	> 8.15 µM (inactive)	3.48 µM (inactive)	2.75 µM (inactive)	5.87	5.73 µM (inactive)	3.44 µM (inactive)	4.47 µM (inactive)	5.9 µM (inactive)	1.95 µM (inactive)	3.63 µM (inactive)	3.08 µM (inactive)	5.01 µM (inactive)	3.42 µM (inactive)	> 10 µM (inactive)	3.92 µM (inactive)	9.89 µM (inactive)	6.68 µM (inactive)	3.19 µM (inactive)
CC(=O)OCC12C(OC(C)=O)C[C@@H](C)C3(CC(c4ccoc4)OC3=O)C1CCC(O)C21CO1 (stereo partly specified)	> 100 µM (inactive)	> 100 µM (inactive)	> 100 µM (inactive)	> 100 µM (inactive)	> 100	> 100 µM (inactive)	> 100 µM (inactive)	> 100 µM (inactive)	> 100 µM (inactive)	> 100 µM (inactive)	> 100 µM (inactive)	> 100 µM (inactive)	> 100 µM (inactive)	> 100 µM (inactive)	> 100 µM (inactive)	> 100 µM (inactive)	> 100 µM (inactive)	2.82 µM (inactive)	> 100 µM (inactive)
O=C1C(Cl)=C(Nc2ccc(OC(F)(F)F)cc2)C(=O)c2c(O)ccc(O)c21	0.445 µM (active)	3.87 µM (inactive)	0.855 µM (active)	0.705 µM (active)	0.366	1.17 µM (inactive)	0.826 µM (active)	0.385 µM (active)	0.873 µM (active)	0.359 µM (active)	0.571 µM (active)	1.74 µM (inactive)	0.505 µM (active)	0.519 µM (active)	0.292 µM (active)	0.468 µM (active)	1.22 µM (inactive)	0.417 µM (active)	0.975 µM (active)
CC1(C)N=C(N)N=C(N)N1CCCCc1ccccc1	< 0.0305 µM (active)	2.08 µM (inactive)	2.16 µM (inactive)	3.57 µM (inactive)	2.92	1.18 µM (inactive)	> 62.2 µM (inactive)	0.124 µM (active)	0.155 µM (active)	0.104 µM (active)	0.708 µM (active)	> 90.2 µM (inactive)	0.601 µM (active)	0.422 µM (active)	> 32.9 µM (inactive)	0.82 µM (active)	0.733 µM (active)	10.4 µM (inactive)	0.453 µM (active)
O=C1Nc2ccccc2/C1=C\c1c(Cl)nc2n1CCS2	23.4 µM (inactive)	18.8 µM (inactive)	19.5 µM (inactive)	30.6 µM (inactive)	22.5	29 µM (inactive)	34 µM (inactive)	31.7 µM (inactive)	12.6 µM (inactive)	30.4 µM (inactive)	16.2 µM (inactive)	23.6 µM (inactive)	20.4 µM (inactive)	22.6 µM (inactive)	14.1 µM (inactive)	24.9 µM (inactive)	35.6 µM (inactive)	19.6 µM (inactive)	13.5 µM (inactive)
O=C1CC(=O)NC(NN2C(=O)CSC2c2ccc(Cl)c(Cl)c2)=N1 (stereo unspecified)	> 100 µM (inactive)	> 100 µM (inactive)	> 100 µM (inactive)	> 100 µM (inactive)	> 100	> 100 µM (inactive)	> 100 µM (inactive)	76.2 µM (inactive)	65 µM (inactive)	23.3 µM (inactive)	71.8 µM (inactive)	> 100 µM (inactive)	> 100 µM (inactive)	> 100 µM (inactive)	> 100 µM (inactive)	> 100 µM (inactive)	–	> 100 µM (inactive)	42.6 µM (inactive)
C=CCc1cc(-c2n[nH]c(=S)[nH]2)ccc1N/N=N/c1ccc(C(=O)O)cc1	> 100 µM (inactive)	> 100 µM (inactive)	27.2 µM (inactive)	> 100 µM (inactive)	> 100	81.3 µM (inactive)	> 100 µM (inactive)	> 100 µM (inactive)	44.8 µM (inactive)	32.4 µM (inactive)	34.1 µM (inactive)	> 100 µM (inactive)	56 µM (inactive)	89.5 µM (inactive)	58.1 µM (inactive)	> 100 µM (inactive)	> 100 µM (inactive)	24 µM (inactive)	–
Cc1ccc2[nH]c3c(c2c1)C1CCC(C(C)(C)C)CC1C1C(=O)N(c2ccc4c(c2)OCO4)C(=O)C31 (stereo unspecified)	1.63 µM (inactive)	1.83 µM (inactive)	7.87 µM (inactive)	2.99 µM (inactive)	5.21	1.91 µM (inactive)	2.24 µM (inactive)	4.51 µM (inactive)	7.21 µM (inactive)	1.81 µM (inactive)	2.67 µM (inactive)	3.1 µM (inactive)	1.52 µM (inactive)	2.26 µM (inactive)	7.18 µM (inactive)	2.24 µM (inactive)	2.64 µM (inactive)	2.06 µM (inactive)	10.8 µM (inactive)
CC1(C)OC([C@H](O)CO)C([C@H]2NCCS2)O1 (stereo partly specified)	> 100 µM (inactive)	> 100 µM (inactive)	> 100 µM (inactive)	> 100 µM (inactive)	> 100	> 100 µM (inactive)	> 100 µM (inactive)	> 100 µM (inactive)	> 100 µM (inactive)	> 100 µM (inactive)	> 100 µM (inactive)	> 100 µM (inactive)	> 100 µM (inactive)	> 100 µM (inactive)	> 100 µM (inactive)	–	> 100 µM (inactive)	> 100 µM (inactive)	> 100 µM (inactive)
CC(C)CCC[C@@H](C)[C@H]1CC[C@H]2[C@@H]3CC[C@H]4C[C@@H](CCC=C(c5cc(Cl)c(O)c(C(=O)O)c5)c5cc(Cl)c(O)c(C(=O)O)c5)CC[C@]4(C)[C@H]3CC[C@]12C	> 100 µM (inactive)	> 100 µM (inactive)	> 100 µM (inactive)	> 100 µM (inactive)	> 100	> 100 µM (inactive)	> 100 µM (inactive)	> 100 µM (inactive)	> 100 µM (inactive)	> 100 µM (inactive)	> 100 µM (inactive)	> 100 µM (inactive)	> 100 µM (inactive)	> 100 µM (inactive)	> 100 µM (inactive)	> 100 µM (inactive)	> 100 µM (inactive)	> 100 µM (inactive)	> 100 µM (inactive)
COc1ccc(OC)c(CC2CCc3nc(N)nc(N)c3C2)c1 (stereo unspecified)	0.0565 µM (active)	23.1 µM (inactive)	0.146 µM (active)	1.62 µM (inactive)	< 0.0435	4.27 µM (inactive)	21.9 µM (inactive)	6.68 µM (inactive)	12.6 µM (inactive)	1.52 µM (inactive)	0.774 µM (active)	2.8 µM (inactive)	15 µM (inactive)	< 0.01 µM (active)	23.6 µM (inactive)	14.5 µM (inactive)	1.21 µM (inactive)	20.1 µM (inactive)	< 0.0133 µM (active)
